Experimental data: patent US20220324835A1 (Nurix Therapeutics, Inc., priority 2018, published 2022)
Read-outs that look alike come from different tables or passages of the source.

How the values were obtained:
Cbl-b [1] = molecular target: T1, Cbl-b (Homo sapiens, UniProt Q13191); assay: Cbl-b inhibition assay (Cbl-b activity assay, FRET, Biological Example 1; 100 mM NaCl, 60 nM Src kinase); assay type: biochemical; settings: upper bound stated in text lists; read-out: IC50 values in the Cbl-b inhibition assay of Biological Example 1
Procedure, shortened: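 Binding-based Cbl-b activity assay. Src-phosphorylated, N-terminally biotin-Avi-tagged Cbl-b recruits labelled UbcH5B-Ub, and proximity to streptavidin-terbium yields FRET.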

T-cell [2] = assay: IL-2 secretion from T-cells stimulated with anti-CD3 antibody alone (Biological Example 2); assay type: cell-based, human; settings: T-cell, read-out: IL-2 secretion Anti-CD3 stimulation; for fold induction at 1 µM: 1 μM Cbl-b inhibitor; for fold induction at 8 µM: 8 μM Cbl-b inhibitor
T-cell [3] = assay: CD25 cell surface staining on T-cells co-stimulated with anti-CD3 and anti-CD28 antibody (Biological Example 2); assay type: cell-based, human; settings: Homo sapiens, T-cell, read-out: CD25 staining Anti-CD3/Anti-CD28 stimulation; for fold induction at 0.3 µM: 0.3 μM Cbl-b inhibitor; for fold induction at 1 µM: 1 μM Cbl-b inhibitor; for fold induction at 4 µM: 4 μM Cbl-b inhibitor
Procedure, shortened: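 No assay protocol given; T-cells stimulated with anti-CD3 alone or anti-CD3 plus anti-CD28, with or without Cbl-b inhibitor. Activation read as IL-2 secretion or CD25 surface staining, expressed as fold over baseline from uninhibited cells […].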

T-cell [4] = assay: CD25 cell surface staining on T-cells stimulated with anti-CD3 antibody alone (Biological Example 2); assay type: cell-based, human; settings: T-cell, read-out: CD25 staining Anti-CD3 stimulation; for fold induction at 1 µM: 1 μM Cbl-b inhibitor; for fold induction at 8 µM: 8 μM Cbl-b inhibitor
Cbl-b [5] = molecular target: T1, Cbl-b; assay: Cbl-b activity assay (Cbl-b inhibition assay), TR-FRET of Cbl-b interaction with UbcH5B-Ub; assay type: biochemical; settings: assay buffer with 100 mM NaCl, 60 nM Src kinase; read-out: Cbl-b activity IC50
Procedure, shortened: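 TR-FRET readout of Cbl-b binding to Bodipy-fluorescein N-terminally labeled Ub conjugated to UbcH5B C85K, measured with compound present. After compound incubation, 60 nM Src kinase with 1 mM ATP and 5 mM MgCl2 (final) was added for 1.5 h, then a further 1 h incubation; asterisked values used 50 mM NaCl buffer and 30 nM Src.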

[6] = fold change over baseline, primary human total T-cells
[7] = Homo sapiens, fold change over baseline (anti-CD3/anti-CD28 stimulated T-cells without inhibitor)
[8] = fold change over baseline (anti-CD3/anti-CD28 stimulated T-cells without inhibitor)

T1 sequence (Q13191 36-427): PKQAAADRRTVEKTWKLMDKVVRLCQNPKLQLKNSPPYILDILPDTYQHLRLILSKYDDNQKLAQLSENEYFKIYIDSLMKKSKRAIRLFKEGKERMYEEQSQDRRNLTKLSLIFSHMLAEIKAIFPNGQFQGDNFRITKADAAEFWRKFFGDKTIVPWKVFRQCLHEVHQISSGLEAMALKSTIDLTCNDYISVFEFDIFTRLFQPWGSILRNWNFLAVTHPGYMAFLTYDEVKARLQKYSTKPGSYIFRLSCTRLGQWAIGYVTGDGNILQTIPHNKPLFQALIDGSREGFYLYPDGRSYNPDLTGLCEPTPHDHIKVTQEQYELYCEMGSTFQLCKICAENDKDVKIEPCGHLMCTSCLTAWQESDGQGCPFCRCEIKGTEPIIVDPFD

| SMILES | IC50 (Cbl-b [1]) [nM] | fold induction at 1 µM (T-cell [2]; [6]) | fold induction at 8 µM (T-cell [2]; [6]) | fold induction at 0.3 µM (T-cell [3]; [6]) | fold induction at 1 µM (T-cell [3]; [6]) | fold induction at 4 µM (T-cell [3]; [6]) | fold induction at 1 µM (T-cell [4]; [6]) | fold induction at 8 µM (T-cell [4]; [6]) | IC50 (Cbl-b [5]) [nM] | fold induction at 1 µM (T-cell [2]; [7]) | fold induction at 0.3 µM (T-cell [3]; [8]) | fold induction at 1 µM (T-cell [3]; [8]) | fold induction at 1 µM (T-cell [4]; [7]) |
| --- | --- | --- | --- | --- | --- | --- | --- | --- | --- | --- | --- | --- | --- |
| CC1CCc2c1n[nH]c2C(=O)Nc1cccc([C@H](C)Cc2nncn2C)c1 (stereo partly drawn) [Compound 323, 6-Methyl-N-(3-((R)-1-(4-methyl-4H-1,2,4-triazol-3-yl)propan-2-yl)phenyl)-2,4,5,6-tetrahydrocyclopenta[c]pyrazole-3-carboxamide] | ≤ 300 | 0.101 to 0.15 | > 0.201 | < 1 | < 1 | 1.01 to 1.3 | 0.601 to 0.8 | > 1 | 100 to 300 |  |  |  |  |
| C[C@H](Cc1nncn1C)c1cccc(NC(=O)c2nc3c(C4CC4)cccc3[nH]2)c1 [Compound 319, 4-cyclopropyl-N-[3-[(1R)-1-methyl-2-(4-methyl-1,2,4-triazol-3-yl)ethyl]phenyl]-1H-benzimidazole-2-carboxamide] | ≤ 300 | 0.051 to 0.1 | > 0.201 | 1.01 to 1.3 | 1.01 to 1.3 | 1.01 to 1.3 | 0.601 to 0.8 | 0.801 to 1 | 100 to 300 |  |  |  |  |
| C[C@H](Sc1nncn1C)c1cccc(NC(=O)c2cccc(C3CC3)n2)c1 [Compound 72, (S)-6-cyclopropyl-N-(3-(1-((4-methyl-4H-1,2,4-triazol-3-yl)thio)ethyl)phenyl)picolinamide] | ≤ 100 | 0.051 to 0.1 | 0.151 to 0.2 | 1.31 to 1.5 | 1.51 to 1.75 | 1.51 to 1.75 | < 0.6 | 0.801 to 1 | < 100 |  |  |  |  |
| C[C@H](c1cc2c(c(C(F)(F)F)c1)CN(c1cccc(C3([C@H](F)c4nncn4C)COC3)c1)C2=O)N1CCC2(CC2)C1 (stereo in doubt) [Example 575, 6-((R)-1-(5-Azaspiro[2.4]heptan-5-yl)ethyl)-2-(3-(3-((S)-fluoro(4-methyl-4H-1,2,4-triazol-3-yl)methyl)oxetan-3-yl)phenyl)-4-(trifluoromethyl)isoindolin-1-one] | ≤ 100 |  |  |  |  |  |  |  | < 100 | > 0.201 | 1.31 to 1.5 | 1.31 to 1.5 | > 1 |
| CC(=O)N1CCN(c2ccc3cnc(C(=O)Nc4cccc([C@H](C)Cc5nncn5C)c4)cc3c2)CC1 [Compound 211, (R)-6-(4-acetylpiperazin-1-yl)-N-(3-(1-(4-methyl-4H-1,2,4-triazol-3-yl)propan-2-yl)phenyl)isoquinoline-3-carboxamide 2,2,2-trifluoroacetate] | ≤ 100 | > 0.201 | > 0.201 | 1.01 to 1.3 | 1.01 to 1.3 | 1.51 to 1.75 | 0.601 to 0.8 | > 1 | < 100 |  |  |  |  |
| Cn1cnnc1CC1(c2cccc(NC(=O)c3nc4c(C(F)(F)F)cccc4[nH]3)c2)COC1 [Compound 335, N-(3-{3-[(4-methyl-1,2,4-triazol-3-yl)methyl]oxetan-3-yl}phenyl)-4-(trifluoromethyl)-1H-1,3-benzodiazole-2-carboxamide] | ≤ 100 | 0.101 to 0.15 | > 0.201 | 1.31 to 1.5 | 1.51 to 1.75 | 1.51 to 1.75 | 0.801 to 1 | > 1 | < 100 |  |  |  |  |
| Cn1cnnc1[C@@H](F)C1(c2cccc(N3Cc4c(cc(CN5CCC(F)CC5)cc4C(F)(F)F)C3=O)c2)COC1 [Example 670a, (S)-2-(3-(3-(fluoro(4-methyl-4H-1,2,4-triazol-3-yl)methyl)oxetan-3-yl)phenyl)-6-((4-fluoropiperidin-1-yl)methyl)-4-(trifluoromethyl)isoindolin-1-one] | ≤ 100 |  |  |  |  |  |  |  | < 100 | > 0.201 | 1.51 to 1.75 | 1.51 to 1.75 | > 1 |
| C[C@H](Cc1nncn1C)c1cc(NC2COC2)nc(N2Cc3c(cccc3C(F)(F)F)C2=O)c1 [Compound 352, 2-{4-[(2R)-1-(4-methyl-4H-1,2,4-triazol-3-yl)propan-2-yl]-6-[(oxetan-3-yl)amino]pyridin-2-yl}-4-(trifluoromethyl)-2,3-dihydro-1H-isoindol-1-one] | ≤ 100 | 0.051 to 0.1 | > 0.201 | 1.01 to 1.3 | 1.01 to 1.3 | 1.31 to 1.5 | 0.801 to 1 | > 1 | < 100 |  |  |  |  |
| Cn1cnnc1CC1(c2cccc(N3Cc4c(cc(CN5CCC(C)(F)CC5)cc4C(F)(F)F)C3=O)c2)COC1 [Example 620, 6-((4-fluoro-4-methylpiperidin-1-yl)methyl)-2-(3-(3-((4-methyl-4H-1,2,4-triazol-3-yl)methyl)oxetan-3-yl)phenyl)-4-(trifluoromethyl)isoindolin-1-one] | ≤ 100 |  |  |  |  |  |  |  | < 100 | > 0.201 | 1.31 to 1.5 | 1.31 to 1.5 | > 1 |
| Cc1cc(C(=O)Nc2cccc([C@@H](C)Cc3nncn3C)c2)nc(C2CC2)n1 [Compound 325, (S)-2-Cyclopropyl-6-methyl-N-(3-(1-(4-methyl-4H-1,2,4-triazol-3-yl)propan-2-yl)phenyl)pyrimidine-4-carboxamide] | ≤ 300 | 0.051 to 0.1 | 0.101 to 0.15 | 1.01 to 1.3 | 1.01 to 1.3 | 1.01 to 1.3 | 0.801 to 1 | > 1 | 100 to 300 |  |  |  |  |
| Cn1cnnc1CC1(c2cccc(N3Cc4c(cccc4C(F)(F)F)C3=O)c2)COC1 [Compound 301, 2-[3-[3-[(4-methyl-1,2,4-triazol-3-yl)methyl]oxetan-3-yl]phenyl]-4-(trifluoromethyl)isoindolin-1-one] | ≤ 100 | 0.051 to 0.1 | 0.101 to 0.15 | 1.01 to 1.3 | 1.01 to 1.3 | 1.31 to 1.5 | 0.801 to 1 | > 1 | < 100 |  |  |  |  |
| C[C@H](Cc1nncn1C)c1cccc(NC(=O)c2cccc(C(F)(F)F)n2)c1 [Compound 183a, (R)-N-(3-(1-(4-methyl-4H-1,2,4-triazol-3-yl)propan-2-yl)phenyl)-6-(trifluoromethyl)picolinamide] | ≤ 100 | > 0.201 | > 0.201 | > 1.76 | > 1.76 | > 1.76 | > 1 | > 1 | < 100 |  |  |  |  |
| C[C@H](Cc1nncn1C)c1cccc(NC(=O)c2n[nH]c3c2CCC3)c1 [Compound 313, (R)-N-(3-(1-(4-Methyl-4H-1,2,4-triazol-3-yl)propan-2-yl)phenyl)-1,4,5,6-tetrahydrocyclopenta[c]pyrazole-3-carboxamide] | ≤ 300 | 0.101 to 0.15 | 0.151 to 0.2 | 1.01 to 1.3 | 1.01 to 1.3 | 1.01 to 1.3 | 0.601 to 0.8 | 0.801 to 1 | 100 to 300 |  |  |  |  |
| Cn1cnnc1CC1(c2cccc(N3Cc4c(cccc4C(F)(F)F)C3=O)c2)CC1 [Compound 299, 2-(3-(1-((4-methyl-4H-1,2,4-triazol-3-yl)methyl)cyclopropyl)phenyl)-4-(trifluoromethyl)isoindolin-1-one] | ≤ 100 | 0.051 to 0.1 | > 0.201 | < 1 | 1.01 to 1.3 | 1.01 to 1.3 | > 1 | > 1 | < 100 |  |  |  |  |
